Assay results: patent US12350277B2, “Compositions and methods of use for treating aberrant inflammation in peri-ocular secretory glands or at the ocular surface” (CS Pharmaceuticals Limited, priority 2017, dated 2025)

Tests used:
[1] = test system: models of lung inflammation; details: rat, intratracheal dosing; cited from earlier work
protein binding = format: in vitro ADME
NFκB pathway = details: A549, HeLa, MG63, 16HBE, and H9 cell lines; IL-1β / TNFα stimulation; cited from earlier work
glucocorticoid receptor [2] = target: T1, glucocorticoid receptor (Homo sapiens, UniProt P04150); details: variety of human in vitro assays; cited from earlier work
T1 sequence (P04150 1-777): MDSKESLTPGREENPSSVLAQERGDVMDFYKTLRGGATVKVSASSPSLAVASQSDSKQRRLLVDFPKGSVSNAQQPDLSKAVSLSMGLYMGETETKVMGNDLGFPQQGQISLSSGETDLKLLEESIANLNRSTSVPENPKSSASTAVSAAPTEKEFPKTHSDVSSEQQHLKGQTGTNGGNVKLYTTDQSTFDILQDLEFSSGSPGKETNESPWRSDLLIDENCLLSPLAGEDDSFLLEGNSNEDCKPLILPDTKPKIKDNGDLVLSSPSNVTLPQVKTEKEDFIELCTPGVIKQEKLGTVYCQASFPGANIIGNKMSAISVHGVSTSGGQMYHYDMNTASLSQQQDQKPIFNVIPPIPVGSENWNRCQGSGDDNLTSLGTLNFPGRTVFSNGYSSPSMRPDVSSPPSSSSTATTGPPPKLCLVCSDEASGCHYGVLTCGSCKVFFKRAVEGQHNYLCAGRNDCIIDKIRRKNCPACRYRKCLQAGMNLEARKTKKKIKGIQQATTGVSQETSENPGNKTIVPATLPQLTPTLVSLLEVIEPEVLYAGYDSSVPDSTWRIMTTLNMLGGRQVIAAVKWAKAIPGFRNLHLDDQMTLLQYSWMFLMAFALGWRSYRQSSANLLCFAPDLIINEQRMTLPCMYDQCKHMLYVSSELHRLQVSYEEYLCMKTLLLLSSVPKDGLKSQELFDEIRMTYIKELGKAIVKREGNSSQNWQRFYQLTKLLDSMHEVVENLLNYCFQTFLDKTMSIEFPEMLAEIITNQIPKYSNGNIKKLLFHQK

glucocorticoid receptor [3] = target: T1, glucocorticoid receptor; details: number of assays; cited from earlier work
[4] = solubility limit in receptor fluid; format: physicochemical; details: not told, aqueous with cosolvent or surfactant or cyclodextrin; phosphate-buffered saline pH 7.4 with 0.01 wt % Na azide and 1 wt % Brij 020
[5] = test system: cynomolgus monkeys with unilateral (OS) ocular hypertension; test: diurnal intraocular pressure during 4-week topical ocular treatment in ocular hypertensive monkeys; format: in vivo; details: 4 weeks
Source text: To test the effect of the compound of Formula I on intraocular pressure (IOP), eight female cynomolgus monkeys with unilateral (OS) ocular hypertension induced by prior photocoagulation (laser) procedure to the trabecular meshwork (TM) were used at an age between 11 and 14 years at the start of the study. Laser induced ocular hypertension had been created at least 9 years earlier in the study animals. Animals and treatments were randomized according to a 4×4 replications Williams-type Latin Square design layout. Following random assignment of a number between 1 and 8, the eight primates were randomized two each into four treatment groups (A-D), with treatments masked for the investigators until all data had been collected and entered into a database. […]
Conscious animals were seated in custom-designed chairs, and […] was measured with a pneumatonometer (Classic 30, Reichert Depew) after topical application of proparacaine hydrochloride (0.13%) in both eyes (FIG. 1). […] During run-in and treatment periods, diurnal IOP was determined two times per week at approximately 8:30 am, 1 pm, and 5 pm. For each animal bilateral tonometry was followed immediately by topical instillation of the appropriate drug formulation A, B, C, or D. During washout periods, diurnal IOP was measured once per week in both eyes at approximately 8:30 am, 1 pm, and 5 pm.

C[C@@H]1C[C@H]2[C@@H]3C[C@H](F)C4=CC(=O)C=C[C@]4(C)[C@@]3(F)[C@@H](O)C[C@]2(C)[C@@]1(OC(=O)C1C(C)(C)C1(C)C)C(=O)OCC#N [compound of Formula I, 6α,9α-difluoro-11 β-hydroxy-16α-methyl-3-oxo-17α-(2,2,3,3-tetramethycyclopropylcarbonyl)oxy-androsta-1,4-diene-17β-carboxylic acid cyanomethyl ester]
anti-inflammatory activity in models of lung inflammation [1]: potent anti-inflammatory activity
fraction unbound (protein binding): ~0.01
transrepression of NFκB pathway activation (IL-6, IL-8 release) (NFκB pathway): potently and efficiently transrepress
glucocorticoid receptor-mediated transrepression activity (glucocorticoid receptor [2]): close to full agonism
glucocorticoid receptor-mediated transactivation (glucocorticoid receptor [3]): partial response
solubility [4]: ~0.0358 mg/mL
IOP compared with dexamethasone treatment ([5]; 10 mg/mL suspension vs MAXIDEX 1 mg/mL, TID): significantly lower than dexamethasone treatment
effect on intraocular pressure (IOP) ([5]; 10 mg/mL suspension, 25 μL OU TID, topical to the eye): did not result in increased IOP
